Common to all, as to assay: isothermal titration calorimetry
Test [1] deals with T1, Cra (catabolite repressor/activator; FruR) (Escherichia coli, UniProt P0ACP1).
T1 construct: 2IKS is effector-free regulatory domain used for docking
The settings on record: 25 °C; 50 mM FBP injected into 15 μM protein (Fig. 5 legend prints 15 mM); effector-binding site.

The target of test [2] is T2, Cra (catabolite repressor/activator; FruR) (Escherichia coli, UniProt P0ACP1, D148R/A248F/G274R).
T2 construct: 2IKS is effector-free regulatory domain used for docking
To be noted: 25 °C; 50 mM FBP injected into 15 μM protein (Fig. 5 legend prints 15 mM); effector-binding site; mutant of strain Tang1684.

The target of test [3] is T3, Cra (catabolite repressor/activator; FruR) (Escherichia coli, UniProt P0ACP1, N73Y/D148R/G274R).
T3 construct: 2IKS is effector-free regulatory domain used for docking
To be noted: 25 °C; 50 mM FBP injected into 15 μM protein (Fig. 5 legend prints 15 mM); effector-binding site; mutant of strain Tang1688.

Test [4] deals with T4, Cra (catabolite repressor/activator; FruR) (Escherichia coli, UniProt P0ACP1, D101R/D148R/G274R).
T4 construct: 2IKS is effector-free regulatory domain used for docking
The settings on record: 25 °C; 50 mM FBP injected into 15 μM protein (Fig. 5 legend prints 15 mM); effector-binding site; mutant of strain Tang1683.

Consider `O=P(O)(O)OC[C@H]1OC(O)(COP(=O)(O)O)[C@@H](O)[C@@H]1O` (stereo partly shown) [fructose-1,6-bisphosphate], for which the Kd in test [1] came to 1.36 ± 0.0062 µM; in test [2] it was 0.7283 ± 0.0038 µM; in test [3], 0.8091 ± 0.0046 µM; in test [4], 0.154 ± 0.0043 µM.

Source of the values: paper PMC5146860, “Succinate production positively correlates with the affinity of the global transcription factor Cra for its effector FBP in Escherichia coli” (Biotechnology for Biofuels, 2016).
